Test results taken from PMC5321205 (Journal of medicinal chemistry, 2016).

Columns and labels:
[1] = test system: α1-acid glycoprotein (AGP); test: SPR
[2] = molecular target: human serum albumin (HSA) (Homo sapiens, UniProt P02768); test: SPR
[3] = molecular target: T1, hCB2R (Homo sapiens, UniProt P34972); test: cAMP determination assay, forskolin-stimulated HEK293-CB2R cells; conditions: for effect on forskolin-stimulated cAMP accumulation, preliminary screening: 200 nM and 1 μM; for effect on forskolin-stimulated cAMP accumulation, preliminary screening / CB2 functional profile in cAMP assay: HEK293-CB2R cells; for CB2R antagonism of CP55,940 effect in cAMP assay: CP55,940 100 nM and 1 μM, compound at 200 nM (31 also at 1 μM)
T1 sequence (P34972 whole entry): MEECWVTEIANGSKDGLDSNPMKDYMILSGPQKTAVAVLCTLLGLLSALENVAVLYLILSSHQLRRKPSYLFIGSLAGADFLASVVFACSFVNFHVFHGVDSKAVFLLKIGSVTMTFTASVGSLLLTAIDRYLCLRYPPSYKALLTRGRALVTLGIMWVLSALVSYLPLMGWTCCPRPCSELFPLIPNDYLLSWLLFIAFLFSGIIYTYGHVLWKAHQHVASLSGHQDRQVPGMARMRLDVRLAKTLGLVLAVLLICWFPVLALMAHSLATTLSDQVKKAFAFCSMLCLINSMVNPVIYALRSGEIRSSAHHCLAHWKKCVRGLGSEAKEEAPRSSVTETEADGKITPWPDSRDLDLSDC

[4] = molecular target: T1, hCB2R; test: [35S]-GTPγS binding assay, CB2R-containing membranes
[5] = molecular target: human CB1 (hCB1) cannabinoid receptor (Homo sapiens, UniProt P21554); test: biochemical; type: binding
Chain of human CB1 (hCB1) cannabinoid receptor (P21554 whole entry): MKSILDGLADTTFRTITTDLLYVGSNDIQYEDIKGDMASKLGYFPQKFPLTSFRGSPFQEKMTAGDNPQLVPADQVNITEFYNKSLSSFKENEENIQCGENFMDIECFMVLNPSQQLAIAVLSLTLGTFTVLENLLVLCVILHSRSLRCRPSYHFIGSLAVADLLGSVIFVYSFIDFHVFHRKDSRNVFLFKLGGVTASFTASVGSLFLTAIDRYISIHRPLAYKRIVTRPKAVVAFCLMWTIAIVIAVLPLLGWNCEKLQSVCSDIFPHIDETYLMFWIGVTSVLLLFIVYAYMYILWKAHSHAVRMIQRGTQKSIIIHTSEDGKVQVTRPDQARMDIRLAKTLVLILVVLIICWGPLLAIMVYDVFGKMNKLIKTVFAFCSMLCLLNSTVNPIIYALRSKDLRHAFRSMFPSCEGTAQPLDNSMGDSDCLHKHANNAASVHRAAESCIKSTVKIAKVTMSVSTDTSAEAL

[6] = molecular target: human CB2 (hCB2) cannabinoid receptor (Homo sapiens, UniProt P34972); test: [3H]-CP55,940 radioligand competition binding, hCB2 membranes
Chain of human CB2 (hCB2) cannabinoid receptor (P34972 whole entry): as the sequence (P34972 whole entry) above

[7] = molecular target: human CB1 receptor (Homo sapiens, UniProt P21554); type: biochemical
Chain of human CB1 receptor (P21554 whole entry): as the sequence (P21554 whole entry) above

Chain of human serum albumin (HSA) (P02768 25-609): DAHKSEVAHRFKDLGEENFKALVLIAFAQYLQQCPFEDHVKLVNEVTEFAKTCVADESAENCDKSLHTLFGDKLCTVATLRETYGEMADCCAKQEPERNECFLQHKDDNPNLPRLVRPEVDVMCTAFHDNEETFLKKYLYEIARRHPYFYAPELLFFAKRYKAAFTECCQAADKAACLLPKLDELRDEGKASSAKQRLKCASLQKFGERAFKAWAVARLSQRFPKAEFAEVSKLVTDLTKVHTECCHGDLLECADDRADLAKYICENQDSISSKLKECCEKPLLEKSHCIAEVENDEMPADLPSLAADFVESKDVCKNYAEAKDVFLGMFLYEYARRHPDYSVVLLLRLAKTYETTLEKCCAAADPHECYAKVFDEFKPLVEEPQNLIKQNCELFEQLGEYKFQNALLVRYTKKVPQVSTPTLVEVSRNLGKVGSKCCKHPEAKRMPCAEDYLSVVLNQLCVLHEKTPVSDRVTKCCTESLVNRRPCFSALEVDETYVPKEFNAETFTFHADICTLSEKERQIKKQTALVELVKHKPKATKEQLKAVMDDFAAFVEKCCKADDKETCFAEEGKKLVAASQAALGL

Row | Structure (SMILES) | AGP binding level [1] | HSA binding level [2] | effect on forskolin-stimulated cAMP accumulation, preliminary screening [3] | CB2 functional profile in cAMP assay [3] | other results
1 | CCCCC/C=C\C/C=C\C/C=C\C/C=C\CCCC(=O)NCCO [AEA, anandamide, reference compound] | very high |  |  |  | 
2 | C=C(C)[C@@H]1CCC(C)=C[C@H]1c1c(O)cc(CCCCC)cc1O [CBD, cannabidiol, reference compound] | very high | high |  |  | 
3 | CCCCCCC(C)(C)c1ccc([C@@H]2C[C@H](O)CC[C@H]2CCCO)c(O)c1 [CP55,940, reference compound] |  | high |  |  | 
4 | CCCCC/C=C\C/C=C\C/C=C\C/C=C\CCCC(=O)OC(CO)CO [Compound 2-AG, 2-arachidonoylglycerol, reference compound] | very high | high |  |  | 
5 | CCCCCCC(C)(C)c1cc(OC)c2c(c1)OC(C)(C)c1cn(C)nc1-2 [Compound 16, 7-(1,1-Dimethylheptyl)-2,4-dihydro-9-methox y-2,4,4-trimethylchromeno[4,3-c]pyrazole] |  |  | no effect |  | CB2R antagonism of CP55,940 effect in cAMP assay [3]: able to antagonize the effect of the cannabinoid agonist CP55,940
6 | CCCCCCC(C)(C)c1cc(OC)c2c(c1)OC(C)(C)c1cnn(CC)c1-2 [Compound 17, 7-(1,1-Dimethylheptyl)-1-ethyl-1,4-dihydro-9-methoxy-4,4-dimethylchromeno[4,3-c]pyrazole] |  |  | low to high inhibition | partial or weak agonists | 
7 | CCCCCCC(C)(C)c1cc(OC)c2c(c1)OC(C)(C)c1cn(CC)nc1-2 [Compound 18, 7-(1,1-Dimethylheptyl)-2-ethyl-2,4-dihydro-9-methoxy-4,4-dimethylchromeno[4,3-c]pyrazole] | very high | very high | low to high inhibition | partial or weak agonists | 
8 | CCCCCCC(C)(C)c1cc(OCc2ccccc2)c2c(c1)OC(C)(C)c1cn[nH]c1-2 [Compound 22, 9-Benzyloxy-2,4-dihydro-7 - (1,1-di m ethylheptyl)-4,4 - dimethylchromeno[4,3-c]pyrazole] |  |  | low to high inhibition | partial or weak agonists | 
9 | CCCCCCC(C)(C)c1cc(OCCCO)c2c(c1)OC(C)(C)c1cn[nH]c1-2 [Compound 28, 7-(1,1-Dimethylheptyl)-2,4-dihydro-9-(3-hydroxypropoxy)-4,4-dimethylchromeno[4,3-c]pyrazole] | very high | very high | low to high inhibition | partial or weak agonists | 
10 | CCCCCCC(C)(C)c1cc(OCCCO)c2c(c1)OC(C)(C)c1cn(CC)nc1-2 [Compound 31, 7-(1,1-Dimethylheptyl)-2-ethyl-2,4-dihydro-9-(3-hydroxypropoxy)-4,4-dimethylchromeno-[4,3-c]pyrazole] |  |  | no effect |  | CB2R antagonism of CP55,940 effect in cAMP assay [3]: behaved as the CP55,940 antagonist only at the highest concentration
11 | CCCCCCC(C)(C)c1cc(OCCO)c2c(c1)OC(C)(C)c1cn[nH]c1-2 [Compound 34, 7-(1,1-Dimethylheptyl)-2,4-dihydro-9-(2-hydroxyethoxy)-4,4-dimethylchromeno[4,3-c]pyra-zole] |  |  | low to high inhibition | potent CB2 agonists | IC50 [4]: 95.1 ± 7.2 nM
12 | CCCCCCC(C)(C)c1cc(OCCO)c2c(c1)OC(C)(C)c1cn(C)nc1-2 [Compound 35, 7-(1,1-Dimethylheptyl)-2,4-dihydro-9-(2-hydroxyethoxy)-2,4,4-trimethylchromeno[4,3-c]py-razole] |  |  | no effect |  | CB2R antagonism of CP55,940 effect in cAMP assay [3]: able to antagonize the effect of the cannabinoid agonist CP55,940
13 | CCCCCCC(C)(C)c1cc(OCCO)c2c(c1)OC(C)(C)c1cn(CC)nc1-2 [Compound 36, 7-(1,1-Dimethylheptyl)-2-ethyl-2,4-dihydro-9-(2-hydroxyethoxy)-4,4-dimethylchromeno[4,3-c]pyrazole] | very high | very high |  |  | 
14 | CCCCCCC(C)(C)c1cc(OCCCBr)c2c(c1)OC(C)(C)c1cn(C)nc1-2 [Compound 37, 9-(3-Bromopropoxy)-7-(1,1-dimethylheptyl)-2,4-dihydro-2,4,4-trimethylchromeno[4,3-c]py-razole] | very high | very high | low to high inhibition | partial or weak agonists | 
15 | CCCCCCC(C)(C)c1cc(OCCBr)c2c(c1)OC(C)(C)c1cnn(CC)c1-2 [Compound 39, 9-(2-Bromoethoxy)-7-(1,1-dimethylheptyl)-1-ethyl-1,4-dihydro-4,4-dimethylchromeno[4,3-c]pyrazole] | medium | medium | low to high inhibition | partial or weak agonists | Ki [5]: 1330 ± 320 nM; Ki [6]: 78.7 ± 11.3 nM
16 | CCCCCCC(C)(C)c1cc2c(c3c1CCCO3)-c1c(cnn1CC)C(C)(C)O2 [Compound 40, 7-(1,1-Dimethylheptyl)-1-ethyl-1,4,9,10-tetrahydro-4,4-dimethyl-8H-pyrano[2′,3′:5,6]chrome-no[4,3-c]pyrazole] | medium | medium |  |  | 
17 | CCCCCCC(C)(C)c1cc(O)c2c(c1)OC(C)(C)c1cnoc1-2 [Compound 42, 7-(1,1-Dimethylheptyl)-4,4-dimethyl-4H-chromeno[3,4-d]-isoxazol-9-ol] | very high | very high |  |  | fold more potent than 10b and 22 in [35S]-GTPγS binding (CB1R) [7]: at least 10 fold; IC50 [4]: 50.2 ± 24.9 nM
18 | CCCCCCC(C)(C)c1cc(OC)c2c(c1)OC(C)(C)c1cnoc1-2 [Compound 43, 7-(1,1-Dimethylheptyl)-9-methoxy-4,4-dimethyl-4H-chromeno-[3,4-d]isoxazole] | medium | medium |  |  | IC50 [4]: 38.6 ± 6.7 nM
19 | CCCCCCC(C)(C)c1cc(OCCCO)c2c(c1)OC(C)(C)c1cnoc1-2 [Compound 44, 7-(1,1-Dimethylheptyl)-9-(3-hydroxypropoxy)-4,4-dimethyl-4H-chromeno[3,4-d]isoxazole] |  |  |  |  | IC50 [4]: 540 ± 208 nM
